# According to PubChem BioAssay AID2060485 (Molecular Pharmacology Branch, DTP, NCI, 2025):
# Tested on: A375 multi-cell spheroids with HUVEC/MSC, viability
# Assay: Anticancer human tumor A375 cell line growth inhibition [GQUAD];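 further: spheroids exposed to compounds for seven days before readout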
# Conditions: for IC50: curve of first compound; for viability, T/C: stronger effect = lower value
# How it was run: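 Viability of tumor cells grown as complex spheroids with endothelial and stromal cells, exposed to drug combinations. Top concentration at or near clinical Cmax (else 10 microM), diluted in half-log increments.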
# [1] = second compound 0.0316 µM, first compound 0.000999 µM
# [2] = second compound 0.0316 µM, first compound 0.00316 µM
# [3] = second compound 0.0316 µM, first compound 0.00999 µM
# [4] = second compound 0.0316 µM, first compound 0.0316 µM
# [5] = second compound 0.0316 µM, first compound 0.0999 µM
# [6] = second compound 0.0316 µM, first compound 0.316 µM
# [7] = second compound 0.1 µM, first compound 0.000999 µM
# [8] = second compound 0.1 µM, first compound 0.00316 µM
# [9] = second compound 0.1 µM, first compound 0.00999 µM
# [10] = second compound 0.1 µM, first compound 0.0316 µM
# [11] = second compound 0.1 µM, first compound 0.0999 µM
# [12] = second compound 0.1 µM, first compound 0.316 µM
# [13] = second compound 0.316 µM, first compound 0.000999 µM
# [14] = second compound 0.316 µM, first compound 0.00316 µM
# [15] = second compound 0.316 µM, first compound 0.00999 µM
# [16] = second compound 0.316 µM, first compound 0.0316 µM
# [17] = second compound 0.316 µM, first compound 0.0999 µM
# [18] = second compound 0.316 µM, first compound 0.316 µM
# [19] = second compound 1 µM, first compound 0.000999 µM
# [20] = second compound 1 µM, first compound 0.00316 µM
# [21] = second compound 1 µM, first compound 0.00999 µM
# [22] = second compound 1 µM, first compound 0.0316 µM
# [23] = second compound 1 µM, first compound 0.0999 µM
# [24] = second compound 1 µM, first compound 0.316 µM
# [25] = second compound 3.16 µM, first compound 0.000999 µM
# [26] = second compound 3.16 µM, first compound 0.00316 µM
# [27] = second compound 3.16 µM, first compound 0.00999 µM
# [28] = second compound 3.16 µM, first compound 0.0316 µM
# [29] = second compound 3.16 µM, first compound 0.0999 µM
# [30] = second compound 3.16 µM, first compound 0.316 µM
# [31] = second compound 10 µM, first compound 0.000999 µM
# [32] = second compound 10 µM, first compound 0.00316 µM
# [33] = second compound 10 µM, first compound 0.00999 µM
# [34] = second compound 10 µM, first compound 0.0316 µM
# [35] = second compound 10 µM, first compound 0.0999 µM
# [36] = second compound 10 µM, first compound 0.316 µM
# [37] = second compound 0.0316 µM, first compound 0.1 µM
# [38] = second compound 0.0316 µM, first compound 1 µM
# [39] = second compound 0.0316 µM, first compound 3.16 µM
# [40] = second compound 0.0316 µM, first compound 10 µM
# [41] = second compound 0.1 µM, first compound 0.1 µM
# [42] = second compound 0.1 µM, first compound 1 µM
# [43] = second compound 0.1 µM, first compound 3.16 µM
# [44] = second compound 0.1 µM, first compound 10 µM
# [45] = second compound 0.316 µM, first compound 0.1 µM
# [46] = second compound 0.316 µM, first compound 1 µM
# [47] = second compound 0.316 µM, first compound 3.16 µM
# [48] = second compound 0.316 µM, first compound 10 µM
# [49] = second compound 1 µM, first compound 0.1 µM
# [50] = second compound 1 µM, first compound 1 µM
# [51] = second compound 1 µM, first compound 3.16 µM
# [52] = second compound 1 µM, first compound 10 µM
# [53] = second compound 3.16 µM, first compound 0.1 µM
# [54] = second compound 3.16 µM, first compound 1 µM
# [55] = second compound 3.16 µM, first compound 3.16 µM
# [56] = second compound 3.16 µM, first compound 10 µM
# [57] = second compound 10 µM, first compound 0.1 µM
# [58] = second compound 10 µM, first compound 1 µM
# [59] = second compound 10 µM, first compound 3.16 µM
# [60] = second compound 10 µM, first compound 10 µM
compound,measurement,setting,value
CC[C@@]1(O)C(=O)OCc2c1cc1n(c2=O)Cc2cc3c(CN(C)C)c(O)ccc3nc2-1 + Cc1[nH]c2ccc(F)cc2c1-c1nc2c3cccnc3c3ncccc3c2[nH]1,IC50,second compound 0.0316 µM,52.8 nM
same,IC50,second compound 0.1 µM,53.8 nM
same,IC50,second compound 0.316 µM,52.4 nM
same,IC50,second compound 1 µM,46.9 nM
same,IC50,second compound 3.16 µM,38.4 nM
same,IC50,second compound 10 µM,46.1 nM
same,"viability, T/C",[1],109%
same,"viability, T/C",[2],110%
same,"viability, T/C",[3],109%
same,"viability, T/C",[4],71.6%
same,"viability, T/C",[5],23.4%
same,"viability, T/C",[6],12.9%
same,"viability, T/C",[7],98.5%
same,"viability, T/C",[8],105%
same,"viability, T/C",[9],111%
same,"viability, T/C",[10],73.3%
same,"viability, T/C",[11],23.7%
same,"viability, T/C",[12],14%
same,"viability, T/C",[13],109%
same,"viability, T/C",[14],108%
same,"viability, T/C",[15],114%
same,"viability, T/C",[16],69.9%
same,"viability, T/C",[17],25.9%
same,"viability, T/C",[18],13.6%
same,"viability, T/C",[19],118%
same,"viability, T/C",[20],107%
same,"viability, T/C",[21],125%
same,"viability, T/C",[22],65.4%
same,"viability, T/C",[23],27.4%
same,"viability, T/C",[24],13.8%
same,"viability, T/C",[25],92.7%
same,"viability, T/C",[26],88.1%
same,"viability, T/C",[27],86.4%
same,"viability, T/C",[28],51.6%
same,"viability, T/C",[29],30.7%
same,"viability, T/C",[30],16.3%
same,"viability, T/C",[31],92.2%
same,"viability, T/C",[32],101%
same,"viability, T/C",[33],105%
same,"viability, T/C",[34],62.9%
same,"viability, T/C",[35],26.1%
same,"viability, T/C",[36],14.6%
COc1ncnc(C2CC2)c1-c1ncc2cnn(Cc3ccc(-c4nc(C(F)(F)F)cn4C(C)C)cc3)c2n1 + Cc1[nH]c2ccc(F)cc2c1-c1nc2c3cccnc3c3ncccc3c2[nH]1,IC50,second compound 0.0316 µM,> 10000 nM
same,IC50,second compound 0.1 µM,> 10000 nM
same,IC50,second compound 0.316 µM,> 10000 nM
same,IC50,second compound 1 µM,> 10000 nM
same,IC50,second compound 3.16 µM,3730 nM
same,IC50,second compound 10 µM,6580 nM
same,"viability, T/C",[4],102%
same,"viability, T/C",[37],107%
same,"viability, T/C",[6],109%
same,"viability, T/C",[38],108%
same,"viability, T/C",[39],107%
same,"viability, T/C",[40],106%
same,"viability, T/C",[10],119%
same,"viability, T/C",[41],106%
same,"viability, T/C",[12],93.8%
same,"viability, T/C",[42],112%
same,"viability, T/C",[43],107%
same,"viability, T/C",[44],123%
same,"viability, T/C",[16],104%
same,"viability, T/C",[45],104%
same,"viability, T/C",[18],108%
same,"viability, T/C",[46],106%
same,"viability, T/C",[47],112%
same,"viability, T/C",[48],108%
same,"viability, T/C",[22],104%
same,"viability, T/C",[49],106%
same,"viability, T/C",[24],99.9%
same,"viability, T/C",[50],106%
same,"viability, T/C",[51],100%
same,"viability, T/C",[52],104%
same,"viability, T/C",[28],72.2%
same,"viability, T/C",[53],72.5%
same,"viability, T/C",[30],77%
same,"viability, T/C",[54],61%
same,"viability, T/C",[55],54.1%
same,"viability, T/C",[56],34.3%
same,"viability, T/C",[34],88.9%
same,"viability, T/C",[57],92.9%
same,"viability, T/C",[36],87.2%
same,"viability, T/C",[58],79.7%
same,"viability, T/C",[59],61.3%
same,"viability, T/C",[60],43.5%
COc1ccc([C@@H](O)c2cc(-c3ncnc4cc(N5CCOCC5)ccc34)c(F)cc2Cl)nn1 + CN(C)c1ccc(Nc2c3ccc(NC(=O)CCN4CCCC4)cc3nc3cc(NC(=O)CCN4CCCC4)ccc23)cc1,IC50,second compound 0.0316 µM,> 10000 nM
same,IC50,second compound 0.1 µM,> 10000 nM
same,IC50,second compound 0.316 µM,> 10000 nM
same,IC50,second compound 1 µM,> 10000 nM
same,IC50,second compound 3.16 µM,> 10000 nM
same,IC50,second compound 10 µM,> 10000 nM
same,"viability, T/C",[4],106%
same,"viability, T/C",[37],103%
same,"viability, T/C",[6],106%
same,"viability, T/C",[38],105%
same,"viability, T/C",[39],91.9%
same,"viability, T/C",[40],74.5%
same,"viability, T/C",[10],107%
same,"viability, T/C",[41],111%
same,"viability, T/C",[12],100%
same,"viability, T/C",[42],108%
same,"viability, T/C",[43],95.6%
same,"viability, T/C",[44],71.5%
same,"viability, T/C",[16],109%
same,"viability, T/C",[45],101%
same,"viability, T/C",[18],104%
same,"viability, T/C",[46],99.7%
same,"viability, T/C",[47],93%
same,"viability, T/C",[48],70.7%
same,"viability, T/C",[22],103%
same,"viability, T/C",[49],101%
same,"viability, T/C",[24],108%
same,"viability, T/C",[50],111%
same,"viability, T/C",[51],97.6%
same,"viability, T/C",[52],78.9%
same,"viability, T/C",[28],104%
same,"viability, T/C",[53],99.3%
same,"viability, T/C",[30],106%
same,"viability, T/C",[54],102%
same,"viability, T/C",[55],90.5%
same,"viability, T/C",[56],83.3%
same,"viability, T/C",[34],110%
same,"viability, T/C",[57],93.6%
same,"viability, T/C",[36],98.5%
same,"viability, T/C",[58],97.7%
same,"viability, T/C",[59],77%
same,"viability, T/C",[60],64.2%
Cn1ncnc1[C@H]1c2n[nH]c(=O)c3cc(F)cc(c23)N[C@@H]1c1ccc(F)cc1 + Cc1[nH]c2ccc(F)cc2c1-c1nc2c3cccnc3c3ncccc3c2[nH]1,IC50,second compound 0.0316 µM,> 316 nM
same,IC50,second compound 0.1 µM,> 316 nM
same,IC50,second compound 0.316 µM,> 316 nM
same,IC50,second compound 1 µM,> 316 nM
same,IC50,second compound 3.16 µM,> 316 nM
same,IC50,second compound 10 µM,> 316 nM
same,"viability, T/C",[1],106%
same,"viability, T/C",[2],98.1%
same,"viability, T/C",[3],108%
same,"viability, T/C",[4],106%
same,"viability, T/C",[5],104%
same,"viability, T/C",[6],97.4%
same,"viability, T/C",[7],96.3%
same,"viability, T/C",[8],97.5%
same,"viability, T/C",[9],102%
same,"viability, T/C",[10],103%
same,"viability, T/C",[11],125%
same,"viability, T/C",[12],114%
same,"viability, T/C",[13],108%
same,"viability, T/C",[14],105%
same,"viability, T/C",[15],106%
same,"viability, T/C",[16],112%
same,"viability, T/C",[17],131%
same,"viability, T/C",[18],121%
same,"viability, T/C",[19],100%
same,"viability, T/C",[20],98%
same,"viability, T/C",[21],115%
same,"viability, T/C",[22],137%
same,"viability, T/C",[23],138%
same,"viability, T/C",[24],116%
same,"viability, T/C",[25],83.7%
same,"viability, T/C",[26],93.6%
same,"viability, T/C",[27],92.3%
same,"viability, T/C",[28],78.3%
same,"viability, T/C",[29],80.7%
same,"viability, T/C",[30],72%
same,"viability, T/C",[31],106%
same,"viability, T/C",[32],95.7%
same,"viability, T/C",[33],112%
same,"viability, T/C",[34],101%
same,"viability, T/C",[35],96.8%
same,"viability, T/C",[36],90.9%
